Key:
[1] = tested on: calpain, cathepsin B, chymotrypsin, trypsin, and papain; settings: cited from earlier work
[2] = tested on: cyclin A; assay: Immunoblotting of cyclin A level in T cells; format: cell-based, human; settings: PHA plus hydroxyurea block, released; LAC added at release
Procedure: Tonsillar T cells were stimulated with PHA (2 μg/ml) for 40 h in the presence of hydroxyurea (1 mM), and these cells were blocked at the G1/S boundary (G1 block). The synchronization was released by washing out hydroxyurea, and the cells were recultured in medium containing 2 μg/ml PHA in the absence or presence of LAC ([…], added once at the time of the release). The cells were harvested at 6 h and 22 h post the G1/S block. The cell lysates (40 μg/sample) were resolved in 10% SDS-PAGE, and transferred to PVDF membranes. The membranes were hybridized with rabbit-anti-Cyclin E or anticyclin A antisera followed by ^125I-protein A. The Cyclin E level (FIG. 8A) and cyclin A level (FIG. 8B) of representative experiments are shown. Similar results were obtained in a total of three independent experiments.
The G1/S phase synchronized T cells represented activated cells, and prolonged exposure to LAC would cause significant cell death.
Tonsillar T cells were cultured in the presence of 2 μg/ml PHA and 1 mM hydroxyurea for 40 h. The cells thus treated were synchronized at the G1/S phase. […]
(§1) Immunoblotting was employed to evaluate the levels of Cyclin E, cyclin A, p21^Cip1 and p27^Kip1. […] The cleared lysates were quantitated for protein concentrations. […] The signals on the membrane were detected by [^125I]-protein A followed by autoradiography.

[3] = tested on: Cyclin E; assay: Immunoblotting of Cyclin E level in T cells; format: cell-based, human
Procedure: Tonsillar T cells were activated with PHA (2 μg/ml) for a period as indicated in each graph. LAC (10 μM) was added once at 0 h. The cells were harvested at 16 h, 24 h, or 40 h as indicated. An equal amount of lysate protein ([…]) was precipitated with rabbit anti-CDK4, anti-CDK2 or anti-Cyclin E antisera (2.5 μg Ab/sample). The immune complexes were assayed for their kinase activities using histone H1 as a substrate. (A) CDK4 kinase activity. (B) CDK2 kinase activity. (C) Cyclin E-associated CDK activity. The membrane in (C) was subsequently hybridized with anti-Cyclin E (1 μg/ml) followed by ^125I-protein A for the evaluation of the protein level of Cyclin E.
Tonsillar T cells were stimulated with PHA (2 μg/ml) for 40 h in the presence of hydroxyurea (1 mM), and these cells were blocked at the G1/S boundary (G1 block). The synchronization was released by washing out hydroxyurea, and the cells were recultured in medium containing 2 μg/ml PHA in the absence or presence of LAC ([…], added once at the time of the release). The cells were harvested at 6 h and 22 h post the G1/S block. […]
as §1

[4] = tested on: Jurkat cells; assay: Proliferation of Jurkat cells; format: cell-based; settings: data not shown
[5] = tested on: chymotrypsin-like activity in the lysate of PBMC; assay: LAC-inhibitable chymotrypsin-like activity in PBMC lysates; format: biochemical, human; settings: 10 μM LAC
Procedure: Human PBMC were cultured in the absence or presence of 2 μg/ml PHA or 10 nM RAPA for 16 h-70 h as indicated. The cells were then harvested, and the chymotrypsin-like activity of whole cells lysates was assayed in the absence or presence of 20 μM proteasome inhibitor LAC. The data are presented as arbitrary units of fluorescence intensity per 20 μg lysate protein. The experiments were repeated three times and a representative one is shown. Samples are in duplicate and the mean±SD is shown. (A) Total chymotrypsin-like activity in the lysate of PBMC. (B) Lactacystin-inhibitable chymotrypsin-like activity in the lysate of 70 h PBMC. […] LAC was always added to the lysates during the proteinase assay 15 min before the addition of the substrate. The solid bars represent the activity in the presence of LAC. The net proteasome activities are calculated as the total activity minus the remaining activity after the LAC addition.
PBMC were cultured with or without PHA (2 μg/ml) and RAPA (10 nM). After 16 h-70 h, the cells were harvested and sonicated in 300 μl PBS on ice for 40 sec. Twenty micrograms of protein per sample from the cleared lysates were supplemented to 100 μl with 0.1 M Tris buffer (pH 8.2). A proteasome-specific inhibitor lactacystin (Omura et al., 1991, supra; Fentenay et al., 1995, supra) was added at a final concentration of 10 nM in some samples as indicated. The samples were incubated on ice for 15 min, and fluorogenic chymotrypsin substrate sLLVY-MCA was then added at a final concentration of 10 nM. The 20S proteasome, which was prepared as previously described (Friguet et al, 1994, J. Biol. Chem. 269:21639), was used as a positive control in place of cell lysates. The samples were incubated at 37° C. for 15 min and the reaction was terminated by adding 4 μl 2.5 M HCl. The samples were then diluted to 2 ml with 0.1 M Tris pH8.2, and measured for their fluorescent intensity by a PTI fluorometer (Photo Technology International, South Brunswick, N.J.). The excitation wavelength was 380 nm, and the emission wavelength 440 mn.

[6] = tested on: p21^Cip1; assay: Immunoblotting of p21Cip1 level in T cells; format: cell-based, human; settings: PHA; LAC 10 μM added once at the beginning
Procedure: Tonsillar T cells were stimulated with PHA (2 μg/ml) for 16 h, 40 or 64 h in the absence or presence of LAC (10 μM). For the 16 h and 40 h culture, LAC was added once at 0 h. For the 64 h culture, LAC was added once at 40 h. The cell lysates were resolved in 10% SDS-PAGE, and blotted onto PVDF membranes. The membranes were hybridized with rabbit anti-p27^Kip1 antisera (FIG. 9A) or with anti-p21^Cip1 antisera (FIG. 9B) followed by ^125-protein A. The experiments were performed three times, and similar results were obtained. Representative data is shown.
In addition to the cyclin levels, the CDK activities are also controlled by several low molecular weight inhibitors. We have examined in this study the effect of the proteasome on the CDK inhibitors p27^Kip1 (Hall et al., 1995, supra) and p21^Cip1 (el-Deiry et al., 1993, Cell 75:817). […] This is in agreement with previous reports (Hengst et al., 1996, Science 271:1861; Nourse et al., 1994, Nature 372:570). […] The blockage was less obvious when assayed at 40 h, probably because the gradual loss of LAC activity during the 40 h culture. […]
as §1

CC(=O)N[C@@H](CSC(=O)[C@]1([C@@H](O)C(C)C)NC(=O)[C@H](C)[C@@H]1O)C(=O)O [LAC, lactacystin]
effect on other proteases [1]: does not affect
cyclin A level during the S phase [2]: did not affect the level
decline of Cyclin E level after the G1/S boundary ([3]; PHA plus hydroxyurea block, released, LAC added at release, 6 h and 22 h): decline was prevented
Cyclin E protein level ([3]; PHA-activated T cells, LAC added once at 0 h): increased
proliferation of Jurkat cells [4]: potently inhibited
inhibition of total chymotrypsin-like activity in the lysate ([5]; 70 h lysate from PHA plus RAPA-treated PBMC): 86.7%
inhibition of total chymotrypsin-like activity in the lysate ([5]; 70 h lysate from PHA-treated PBMC): 76.7%
inhibition of total chymotrypsin-like activity in the lysate ([5]; 70 h lysate from medium-treated PBMC): 73.4%
upregulation of p21Cip1 in the G1 phase [6]: strongly suppressed the upregulation

— US20020049157A1, “Use of proteasome inhibitors for treating cancer, inflammation, autoimmune disease, graft rejection and septic shock” (priority 1998, published 2002)
